Source: ChEMBL document CHEMBL4800722, “Data for DCP probe BI 605906” (2021)

Key:
[1] = target: Vascular endothelial growth factor receptor 2 (Homo sapiens) (UniProt P35968)
[2] = target: 5-hydroxytryptamine receptor 2B (Homo sapiens) (UniProt P41595); conditions: Compound concentration 10.0 uM
[3] = target: Dual specificity protein kinase TTK (Homo sapiens) (UniProt P33981); experiment: TTK Invitrogen Lab (UK) kinase screen (BI); conditions: Compound concentration 1.0 uM
[4] = target: SRSF protein kinase 1 (Homo sapiens) (UniProt Q96SB4); conditions: Compound concentration 1.0 uM
[5] = target: Interleukin-1 receptor-associated kinase 1 (Homo sapiens) (UniProt P51617); conditions: Compound concentration 1.0 uM
[6] = target: Serine/threonine-protein kinase MRCK beta (Homo sapiens) (UniProt Q9Y5S2); experiment: CDC42 BPB Invitrogen Lab (UK) kinase screen (BI); conditions: Compound concentration 1.0 uM
[7] = target: Serine/threonine-protein kinase SIK2 (Homo sapiens) (UniProt Q9H0K1); experiment: SNF1LK2 Invitrogen Lab (UK) kinase screen (BI); conditions: Compound concentration 1.0 uM
[8] = target: PI3-kinase p110-alpha/p85-alpha (Homo sapiens) (UniProt P27986+P42336); experiment: PIK3CAPIK3R1 Invitrogen Lab (UK) kinase screen (BI); type: protein-complex assay; conditions: Compound concentration 1.0 uM
[9] = target: Sigma non-opioid intracellular receptor 1 (Homo sapiens) (UniProt Q99720); conditions: Compound concentration 10.0 uM
[10] = target: Insulin-like growth factor 1 receptor (Homo sapiens) (UniProt P08069)
Chain of Insulin-like growth factor 1 receptor (Homo sapiens) (P08069 31-736 limits assumed): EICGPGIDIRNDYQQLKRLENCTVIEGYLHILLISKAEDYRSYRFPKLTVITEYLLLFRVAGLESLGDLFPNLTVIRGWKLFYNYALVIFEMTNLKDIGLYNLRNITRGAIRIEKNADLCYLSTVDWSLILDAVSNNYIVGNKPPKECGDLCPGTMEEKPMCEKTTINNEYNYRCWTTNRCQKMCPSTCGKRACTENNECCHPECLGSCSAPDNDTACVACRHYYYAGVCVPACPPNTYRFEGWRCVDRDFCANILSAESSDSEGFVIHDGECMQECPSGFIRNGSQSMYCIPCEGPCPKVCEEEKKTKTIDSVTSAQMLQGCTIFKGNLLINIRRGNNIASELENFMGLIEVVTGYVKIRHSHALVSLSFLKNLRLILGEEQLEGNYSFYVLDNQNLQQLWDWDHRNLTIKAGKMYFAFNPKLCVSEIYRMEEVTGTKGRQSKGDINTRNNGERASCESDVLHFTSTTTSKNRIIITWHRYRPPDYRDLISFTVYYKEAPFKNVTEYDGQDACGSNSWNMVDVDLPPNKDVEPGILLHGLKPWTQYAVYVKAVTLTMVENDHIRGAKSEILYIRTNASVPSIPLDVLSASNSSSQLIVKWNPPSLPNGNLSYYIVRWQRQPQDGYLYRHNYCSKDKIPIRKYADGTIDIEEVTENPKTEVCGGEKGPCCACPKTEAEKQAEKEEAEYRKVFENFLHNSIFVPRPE
Chain of Insulin-like growth factor 1 receptor (Homo sapiens) (P08069 741-1367 limits assumed): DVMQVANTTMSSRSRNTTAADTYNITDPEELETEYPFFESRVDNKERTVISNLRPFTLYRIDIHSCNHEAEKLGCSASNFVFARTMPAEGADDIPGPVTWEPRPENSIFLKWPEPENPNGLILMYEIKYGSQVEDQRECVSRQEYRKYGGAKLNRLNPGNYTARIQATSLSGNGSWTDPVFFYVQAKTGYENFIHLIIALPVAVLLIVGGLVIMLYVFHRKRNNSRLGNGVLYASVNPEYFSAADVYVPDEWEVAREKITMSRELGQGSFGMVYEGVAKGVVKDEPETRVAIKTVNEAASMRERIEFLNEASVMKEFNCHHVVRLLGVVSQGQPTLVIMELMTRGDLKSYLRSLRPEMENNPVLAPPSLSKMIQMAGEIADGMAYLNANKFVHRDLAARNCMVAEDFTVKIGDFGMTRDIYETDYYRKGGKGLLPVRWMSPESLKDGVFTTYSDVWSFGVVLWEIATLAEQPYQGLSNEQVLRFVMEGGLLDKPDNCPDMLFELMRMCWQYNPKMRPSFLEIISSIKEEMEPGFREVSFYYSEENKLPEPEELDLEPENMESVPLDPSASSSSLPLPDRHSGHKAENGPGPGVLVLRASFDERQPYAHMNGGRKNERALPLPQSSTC

[11] = target: Serine/threonine-protein kinase 33 (Homo sapiens) (UniProt Q9BYT3); experiment: STK33 Invitrogen Lab (UK) kinase screen (BI); conditions: Compound concentration 1.0 uM
[12] = target: Vascular endothelial growth factor receptor 3 (Homo sapiens) (UniProt P35916); conditions: Compound concentration 1.0 uM
[13] = target: Tyrosine-protein kinase CSK (Homo sapiens) (UniProt P41240); experiment: CSK DUNDEE kinase screen (BI); conditions: Compound concentration 10.0 uM
[14] = target: Ribosomal protein S6 kinase alpha-1 (Homo sapiens) (UniProt Q15418); experiment: MAPKAPK1A DUNDEE kinase screen (BI); conditions: Rattus norvegicus; Compound concentration 10.0 uM
[15] = target: Tyrosine-protein kinase JAK3 (Homo sapiens) (UniProt P52333)
Chain of Tyrosine-protein kinase JAK3 (Homo sapiens) (P52333 whole entry): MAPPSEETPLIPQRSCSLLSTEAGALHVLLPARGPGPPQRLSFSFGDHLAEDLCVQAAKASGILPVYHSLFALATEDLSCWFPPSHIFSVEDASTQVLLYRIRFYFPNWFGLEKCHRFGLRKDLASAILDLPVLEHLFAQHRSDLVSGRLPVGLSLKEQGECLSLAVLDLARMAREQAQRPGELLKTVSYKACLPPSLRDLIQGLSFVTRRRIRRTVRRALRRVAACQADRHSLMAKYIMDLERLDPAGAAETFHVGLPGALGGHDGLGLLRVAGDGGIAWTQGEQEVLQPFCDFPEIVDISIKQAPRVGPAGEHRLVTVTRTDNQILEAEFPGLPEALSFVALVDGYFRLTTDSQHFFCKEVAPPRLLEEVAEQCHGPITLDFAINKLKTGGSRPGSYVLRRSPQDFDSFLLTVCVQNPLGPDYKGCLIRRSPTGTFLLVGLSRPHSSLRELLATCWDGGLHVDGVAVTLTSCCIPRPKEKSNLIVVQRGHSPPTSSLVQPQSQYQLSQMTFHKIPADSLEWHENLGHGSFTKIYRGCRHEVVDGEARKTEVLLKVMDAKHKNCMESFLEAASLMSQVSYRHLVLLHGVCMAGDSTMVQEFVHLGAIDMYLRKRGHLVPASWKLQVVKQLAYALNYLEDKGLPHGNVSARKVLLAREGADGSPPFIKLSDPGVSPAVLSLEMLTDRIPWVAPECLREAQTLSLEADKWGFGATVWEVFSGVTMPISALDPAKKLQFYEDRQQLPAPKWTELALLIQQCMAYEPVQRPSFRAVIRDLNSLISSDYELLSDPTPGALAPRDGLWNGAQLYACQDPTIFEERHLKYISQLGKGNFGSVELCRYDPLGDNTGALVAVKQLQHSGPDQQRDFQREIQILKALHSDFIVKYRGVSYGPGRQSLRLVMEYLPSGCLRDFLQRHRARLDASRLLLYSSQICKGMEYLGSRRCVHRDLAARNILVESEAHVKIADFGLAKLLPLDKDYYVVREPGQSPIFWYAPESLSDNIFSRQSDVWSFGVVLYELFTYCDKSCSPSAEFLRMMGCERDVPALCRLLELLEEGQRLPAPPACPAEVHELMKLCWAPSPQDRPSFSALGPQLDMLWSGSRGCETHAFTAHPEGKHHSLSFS

[16] = target: Activin receptor type-2B (Homo sapiens) (UniProt Q13705); conditions: Compound concentration 1.0 uM
[17] = target: Cyclin-dependent kinase 9 (Homo sapiens) (UniProt P50750); conditions: Compound concentration 1.0 uM
[18] = target: Phosphorylase b kinase gamma catalytic chain, skeletal muscle/heart isoform (Homo sapiens) (UniProt Q16816); experiment: PHKG1 Invitrogen Lab (UK) kinase screen (BI); conditions: Compound concentration 1.0 uM
[19] = target: D(1B) dopamine receptor (Homo sapiens) (UniProt P21918); conditions: Compound concentration 10.0 uM
[20] = target: Alpha-1D adrenergic receptor (Homo sapiens) (UniProt P25100); conditions: Compound concentration 10.0 uM
[21] = target: Serine/threonine-protein kinase PAK 3 (Homo sapiens) (UniProt O75914); conditions: Compound concentration 1.0 uM
[22] = target: Angiotensin-converting enzyme (Oryctolagus cuniculus) (UniProt P12822); conditions: Compound concentration 10.0 uM
[23] = target: Serine/threonine-protein kinase/endoribonuclease IRE2 (Homo sapiens) (UniProt Q76MJ5); experiment: ERN2 Invitrogen Lab (UK) kinase screen (BI); conditions: Compound concentration 1.0 uM
[24] = target: Ephrin type-A receptor 7 (Homo sapiens) (UniProt Q15375); conditions: Compound concentration 1.0 uM
[25] = target: Myosin light chain kinase, smooth muscle (Homo sapiens) (UniProt Q15746); conditions: Compound concentration 1.0 uM
[26] = target: GABA B receptor (Rattus norvegicus) (UniProt Q9Z0U4+O88871); experiment: GABAB/RA Eurofins SafetyScreen44 (BI); type: protein-complex assay; conditions: Compound concentration 10.0 uM
[27] = target: Casein kinase I (Homo sapiens) (UniProt Q9HCP0+P78368+P48730+P49674+P48729); experiment: CK1 DUNDEE kinase screen (BI); type: protein assay; conditions: Rattus norvegicus; Compound concentration 10.0 uM
[28] = target: Mitogen-activated protein kinase kinase kinase 11 (Homo sapiens) (UniProt Q16584); conditions: Compound concentration 1.0 uM
[29] = target: 5-hydroxytryptamine receptor 1A (Homo sapiens) (UniProt P08908); conditions: Compound concentration 10.0 uM
[30] = target: Myosin light chain kinase family member 4 (Homo sapiens) (UniProt Q86YV6); experiment: MYLK4 Invitrogen Lab (UK) kinase screen (BI); conditions: Compound concentration 1.0 uM
[31] = target: Calcium/calmodulin-dependent protein kinase type II subunit delta (Homo sapiens) (UniProt Q13557); conditions: Compound concentration 1.0 uM
[32] = target: Kinase suppressor of Ras 2 (Homo sapiens) (UniProt Q6VAB6); conditions: Compound concentration 1.0 uM
[33] = target: 5-hydroxytryptamine receptor 6 (Homo sapiens) (UniProt P50406); conditions: Compound concentration 10.0 uM
[34] = target: Serine/threonine-protein kinase Nek9 (Homo sapiens) (UniProt Q8TD19); conditions: Compound concentration 1.0 uM
[35] = target: Megakaryocyte-associated tyrosine-protein kinase (Homo sapiens) (UniProt P42679); conditions: Compound concentration 1.0 uM
[36] = target: Casein kinase I isoform epsilon (Homo sapiens) (UniProt P49674); experiment: CSNK1E Invitrogen Lab (UK) kinase screen (BI); conditions: Compound concentration 1.0 uM
[37] = target: Calpain-1 catalytic subunit (Homo sapiens) (UniProt P07384); conditions: Compound concentration 10.0 uM
[38] = target: Rho-associated protein kinase 2 (Homo sapiens) (UniProt O75116); experiment: ROCKII DUNDEE kinase screen (BI); conditions: Rattus norvegicus; Compound concentration 10.0 uM
[39] = target: Tyrosine-protein kinase FRK (Homo sapiens) (UniProt P42685); conditions: Compound concentration 1.0 uM
[40] = target: Leukocyte tyrosine kinase receptor (Homo sapiens) (UniProt P29376); conditions: Compound concentration 1.0 uM
Chain of Leukocyte tyrosine kinase receptor (Homo sapiens) (P29376 whole entry): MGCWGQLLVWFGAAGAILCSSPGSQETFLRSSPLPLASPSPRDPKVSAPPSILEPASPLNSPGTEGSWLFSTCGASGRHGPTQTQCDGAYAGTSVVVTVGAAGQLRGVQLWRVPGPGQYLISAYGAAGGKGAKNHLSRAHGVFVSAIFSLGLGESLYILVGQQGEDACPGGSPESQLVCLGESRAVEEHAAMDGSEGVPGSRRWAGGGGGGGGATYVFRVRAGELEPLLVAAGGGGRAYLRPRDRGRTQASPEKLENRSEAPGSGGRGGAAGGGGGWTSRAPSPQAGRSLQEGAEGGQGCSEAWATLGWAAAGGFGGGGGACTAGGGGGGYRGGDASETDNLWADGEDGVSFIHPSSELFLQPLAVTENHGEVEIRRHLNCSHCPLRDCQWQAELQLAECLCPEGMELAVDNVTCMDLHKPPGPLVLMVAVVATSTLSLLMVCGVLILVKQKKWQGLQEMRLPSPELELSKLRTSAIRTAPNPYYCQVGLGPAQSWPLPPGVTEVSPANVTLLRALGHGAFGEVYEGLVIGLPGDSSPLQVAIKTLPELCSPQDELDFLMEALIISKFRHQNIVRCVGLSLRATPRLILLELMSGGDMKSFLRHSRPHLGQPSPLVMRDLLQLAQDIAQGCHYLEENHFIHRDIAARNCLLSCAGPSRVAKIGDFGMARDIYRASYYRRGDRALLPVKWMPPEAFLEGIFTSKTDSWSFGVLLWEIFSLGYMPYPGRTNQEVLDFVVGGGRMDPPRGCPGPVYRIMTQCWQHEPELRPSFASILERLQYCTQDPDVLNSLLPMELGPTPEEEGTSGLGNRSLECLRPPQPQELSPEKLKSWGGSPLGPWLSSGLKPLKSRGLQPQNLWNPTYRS

[41] = target: Maternal embryonic leucine zipper kinase (Homo sapiens) (UniProt Q14680); experiment: MELK Invitrogen Lab (UK) kinase screen (BI); conditions: Compound concentration 1.0 uM
[42] = target: MAP kinase-activated protein kinase 2 (Homo sapiens) (UniProt P49137)
Chain of MAP kinase-activated protein kinase 2 (Homo sapiens) (P49137 whole entry, looked up, canonical isoform): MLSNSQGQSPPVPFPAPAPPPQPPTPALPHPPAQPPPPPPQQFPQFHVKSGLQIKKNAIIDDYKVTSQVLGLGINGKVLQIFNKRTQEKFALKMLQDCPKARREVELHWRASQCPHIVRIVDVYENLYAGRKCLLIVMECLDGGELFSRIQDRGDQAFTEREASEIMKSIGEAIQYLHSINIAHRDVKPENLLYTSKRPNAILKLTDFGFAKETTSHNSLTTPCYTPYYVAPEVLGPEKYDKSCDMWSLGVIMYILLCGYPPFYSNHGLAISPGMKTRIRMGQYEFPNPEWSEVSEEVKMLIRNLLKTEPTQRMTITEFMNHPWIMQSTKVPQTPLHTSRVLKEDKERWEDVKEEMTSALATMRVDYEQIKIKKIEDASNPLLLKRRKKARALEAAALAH

[43] = target: ATP-sensitive inward rectifier potassium channel 1 isoform X1 (Mesocricetus auratus) (UniProt A0A1U8CU73); experiment: K+/KATP/HA Eurofins SafetyScreen44 (BI); conditions: Cricetinae; Compound concentration 10.0 uM

Chain of Vascular endothelial growth factor receptor 2 (Homo sapiens) (P35968 whole entry): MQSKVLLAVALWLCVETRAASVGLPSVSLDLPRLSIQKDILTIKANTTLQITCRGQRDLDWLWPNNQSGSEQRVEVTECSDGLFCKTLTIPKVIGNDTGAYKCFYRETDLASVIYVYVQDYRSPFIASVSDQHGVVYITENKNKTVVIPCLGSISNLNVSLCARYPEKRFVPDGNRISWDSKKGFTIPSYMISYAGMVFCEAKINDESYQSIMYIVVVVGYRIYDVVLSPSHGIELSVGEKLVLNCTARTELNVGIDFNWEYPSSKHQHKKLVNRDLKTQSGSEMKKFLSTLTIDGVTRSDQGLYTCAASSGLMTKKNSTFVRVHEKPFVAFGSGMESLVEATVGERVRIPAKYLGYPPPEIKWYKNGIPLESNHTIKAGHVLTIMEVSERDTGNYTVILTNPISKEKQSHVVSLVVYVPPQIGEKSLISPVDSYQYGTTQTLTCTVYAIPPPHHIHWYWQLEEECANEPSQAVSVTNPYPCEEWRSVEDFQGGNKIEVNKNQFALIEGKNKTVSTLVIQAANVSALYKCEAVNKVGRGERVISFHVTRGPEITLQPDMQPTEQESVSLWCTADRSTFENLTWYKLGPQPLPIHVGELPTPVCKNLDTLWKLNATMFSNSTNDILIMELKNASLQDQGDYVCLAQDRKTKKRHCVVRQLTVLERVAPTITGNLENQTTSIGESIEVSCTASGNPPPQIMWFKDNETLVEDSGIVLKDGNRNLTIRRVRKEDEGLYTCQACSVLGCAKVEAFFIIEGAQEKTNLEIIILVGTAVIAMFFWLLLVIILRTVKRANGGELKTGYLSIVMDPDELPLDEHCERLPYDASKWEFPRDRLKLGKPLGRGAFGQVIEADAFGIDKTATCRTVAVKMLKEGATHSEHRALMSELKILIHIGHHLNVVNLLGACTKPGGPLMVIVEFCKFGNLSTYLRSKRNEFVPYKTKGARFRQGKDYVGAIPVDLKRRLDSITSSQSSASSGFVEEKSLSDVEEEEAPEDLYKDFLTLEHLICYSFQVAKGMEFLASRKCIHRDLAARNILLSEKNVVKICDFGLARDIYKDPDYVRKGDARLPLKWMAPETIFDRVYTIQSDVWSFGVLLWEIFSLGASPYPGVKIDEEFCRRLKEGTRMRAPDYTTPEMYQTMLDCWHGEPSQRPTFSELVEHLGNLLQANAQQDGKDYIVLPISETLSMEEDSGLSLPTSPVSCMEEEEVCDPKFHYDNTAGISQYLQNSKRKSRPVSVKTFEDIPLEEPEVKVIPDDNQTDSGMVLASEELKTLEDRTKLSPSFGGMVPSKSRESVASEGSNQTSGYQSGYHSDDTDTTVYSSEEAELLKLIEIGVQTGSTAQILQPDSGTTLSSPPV

SMILES: CCC(F)(F)c1cc(N2CCC(S(C)(=O)=O)CC2)nc2sc(C(N)=O)c(N)c12 [BI-605906]
- residual activity ([1]; Compound concentration 1.0 uM): 98%
- residual activity ([1]; Compound concentration 10.0 uM): 79%
- inhibition [2]: 13.4%
- residual activity [3]: 75%
- residual activity [4]: 99%
- residual activity [5]: 89%
- residual activity [6]: 103%
- residual activity [7]: 84%
- residual activity [8]: 103%
- inhibition [9]: 8.89%
- residual activity ([10]; Compound concentration 1.0 uM): 95%
- residual activity ([10]; Compound concentration 10.0 uM): 99%
- residual activity [11]: 88%
- residual activity [12]: 97%
- residual activity [13]: 78.3%
- residual activity [14]: 77.5%
- residual activity ([15]; Compound concentration 1.0 uM): 92%
- residual activity ([15]; Compound concentration 10.0 uM): 95%
- residual activity [16]: 91%
- residual activity [17]: 91%
- residual activity [18]: 103%
- inhibition [19]: 2.13%
- inhibition [20]: 36.7%
- residual activity [21]: 101%
- residual activity [22]: 98%
- residual activity [23]: 102%
- residual activity [24]: 87%
- residual activity [25]: 91%
- residual activity [26]: 113%
- residual activity [27]: 68.6%
- residual activity [28]: 95%
- inhibition [29]: 14.4%
- residual activity [30]: 83%
- residual activity [31]: 96%
- residual activity [32]: 92%
- inhibition [33]: 8.77%
- residual activity [34]: 99%
- residual activity [35]: 101%
- residual activity [36]: 75%
- residual activity [37]: 97%
- residual activity [38]: 40.1%
- residual activity [39]: 92%
- residual activity [40]: 99%
- residual activity [41]: 103%
- residual activity ([42]; Compound concentration 1.0 uM): 93%
- residual activity ([42]; Compound concentration 10.0 uM): 87%
- residual activity [43]: 110%
